# The source made the active and inactive calls. No cut-off for these calls is given here.
# System: PMNL
# Experiment: Induction of 15-HETE formation in human PMNL cells by RP-HPLC analysis
# Format: functional, cell-based
row,SMILES,Activity
1,C/C(=C\CC/C(C)=C/CC[C@]1(C)CCc2c(C)c(O)cc(C)c2O1)CC/C=C(\C)C(=O)NCC1CCCCC1,Active
2,COc1ccc(CNC(=O)/C(C)=C/CC/C(C)=C/CC/C(C)=C/CC[C@]2(C)CCc3c(C)c(O)c(C)c(C)c3O2)cc1,Active
3,C/C(=C\CC/C(C)=C/CC[C@]1(C)CCc2c(C)c(O)c(C)c(C)c2O1)CC/C=C(\C)C(=O)NCc1cccnc1,Active
4,C/C(=C\CC/C(C)=C/CC[C@]1(C)CCc2c(C)c(O)c(C)c(C)c2O1)CC/C=C(\C)C(=O)NCC1CCCCC1,Active

# — ChEMBL document CHEMBL4706510, “Structure-based design, semi-synthesis and anti-inflammatory activity of tocotrienolic amides as 5-lipoxygenase inhibitors” (Eur J Med Chem, 2020)
